Source: the NIST ThermoML archive (doi:10.1016/j.jct.2008.09.008)

Experiment: wn = mass fraction of the nth substance listed
Details: 101 kPa, Liquid; for viscosity: Capillary tube (Ostwald / Ubbelohde) method; for speed of sound: Linear variable-path acoustic interferometer; for mass density: Pycnometric method

OCCCCO [1,4-butanediol] + O
Details	mass density, w1 = 0.2 [kg/m3]	mass density, w1 = 0.4 [kg/m3]	speed of sound, w1 = 0.2 [m/s]	speed of sound, w1 = 0.4 [m/s]	viscosity, w1 = 0.2 [mPa·s]	viscosity, w1 = 0.4 [mPa·s]
298.15 K	1004.93	1013.41	1605.3	1684.2	3.421	6.454
303.15 K	1002.93	1010.75	1606.6	1677.4	2.966	5.738
308.15 K	1000.79	1008.04	1607.8	1670.7	2.542	4.993
313.15 K	998.53	1005.28	1608.5	1664	2.142	4.221
318.15 K	996.15	1002.46	1609.3	1657.2	1.774	3.421
